# According to patent publication US20080064871A1, “Production Method of Nitrogen-Containing Fused Ring Compounds” (Japan Tobacco Inc., priority 2006, published 2008):
# Target: T1, human URAT1 (Homo sapiens, UniProt Q96S37)
# T1 construct: Human URAT1 full length cDNA was subcloned to expression vector pcDNA3.1; expressed in transfected cells; host or cells: HEK293 cells (pcDNA3.1, geneticin-selected)
# T1 sequence (Q96S37 1-553): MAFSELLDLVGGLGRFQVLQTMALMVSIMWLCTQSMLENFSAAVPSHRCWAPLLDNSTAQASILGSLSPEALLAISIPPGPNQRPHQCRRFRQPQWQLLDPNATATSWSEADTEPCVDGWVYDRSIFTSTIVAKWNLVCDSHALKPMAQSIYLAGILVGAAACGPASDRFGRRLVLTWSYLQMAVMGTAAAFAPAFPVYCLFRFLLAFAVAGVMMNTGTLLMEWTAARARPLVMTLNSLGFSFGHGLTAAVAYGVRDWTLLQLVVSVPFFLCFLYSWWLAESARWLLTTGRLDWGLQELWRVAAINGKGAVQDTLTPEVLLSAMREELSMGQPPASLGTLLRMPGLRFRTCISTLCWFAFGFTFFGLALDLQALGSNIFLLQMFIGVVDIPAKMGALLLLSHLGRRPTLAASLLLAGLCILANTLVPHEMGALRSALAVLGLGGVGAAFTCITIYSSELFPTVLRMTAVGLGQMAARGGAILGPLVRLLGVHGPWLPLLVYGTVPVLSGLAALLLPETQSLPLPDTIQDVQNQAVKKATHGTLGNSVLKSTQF
# Experiment: Uric acid transport inhibitory test using human URAT1-expressing cells
# Type: cell-based
# Settings: human URAT1 expressing HEK293 cells, uptake of 14C-labeled uric acid for 5 min, room temperature; read-out: hURAT1 (IC50, concentration necessary for inhibiting the uric acid transport rate by 50%)
# From the text: Reference Experimental Example 1 Uric Acid Transport Inhibitory Test Using Human Urat1-Expressing Cells
# Human URAT1 full length cDNA was subcloned to expression vector pcDNA3.1 and human URAT1 gene was transfected into human embryonic kidney derived cell line (HEK293 cells) by liposome method using Lipofectamine2000. Simultaneously, HEK293 cells transfected with expression vector pcDNA3.1 alone (hereinafter mock cells) were also produced. HEK293 cells expressing human URAT1 gene or mock cells were selected with geneticin resistance as an index. The functional expression of human URAT1 gene was confirmed by a method similar to the following method, using transport of uric acid labeled with ^14C into the cells as an index.
# Human URAT1 expressing HEK293 cells or mock cells were cultured in Dulbecco's modified Eagle's MEM medium (high glucose) containing 10% fetal bovine serum, 0.5 mg/mL geneticin sulfate, 100 units/mL penicillin and 100 μg/mL streptomycin under the conditions of 37° C. and 5% CO2 in an incubator. The cells were plated in a 96 well plate (poly-D-Lysine coated) at 1×10^5 cells/well and the following uric acid transport inhibitory test was performed 24 hr later. This test was performed at room temperature.
# After the medium was removed by aspiration from each well, the cells were washed once with Hank's Balanced Salt Solution (HBSS) and preincubated with HBSS ([…]) for 5 min. HBSS was aspirated and an assay buffer (wherein NaCl in the above-mentioned HBSS had been substituted with Na-gluconate) containing various concentrations of the Example compound and a radioactive ligand (uric acid labeled with 14C; final concentration […]) was added to each well at […] and an uptake reaction was carried out for 5 min. After the reaction, the cells were washed twice with ice-cold HBSS ([…]), and Microscin ti TM 20 (PerkinElmer) was added at […]. The cells were lysed by stirring and the radioactivity of each well was measured in a liquid scintillation counter (TOP COUNT, Packard).
# The uric acid transport rate (%) of the Example compound at each concentration was calculated relative to the radioactivity (difference in radioactivity between human URAT1 expressing HEK293 cells and mock cells without addition of Example compound (DMSO addition)) showing URAT1 specific uric acid transport as 100%, and the concentration (IC50) of the Example compound necessary for inhibiting the uric acid transport rate by 50% was determined. In Table-Table, “+++” means IC50 value of less than 100 nM, “++” means IC50 value of 100 nM to less than 1000 nM, and “+” means IC50 value of 1000 nM to less than 3000 nM.
row,IC50 [nM],Compound
1,100 to 1000,"Nc1ccc2c(c1)N(C(=O)c1cc(Cl)c(O)c(Cl)c1)CCO2 [Example 68, (6-amino-2,3-dihydrobenzo[1,4]oxazin-4-yl)-(3,5-dichloro-4-hydroxyphenyl)-methanone]"
2,< 100,"Cc1cccc2c1N(C(=O)c1cc(Cl)c(O)c(Cl)c1)CCO2 [Example 14, (3,5-dichloro-4-hydroxyphenyl)-(5-methyl-2,3-dihydrobenzo[1,4]oxazin-4-yl)-methanone]"
3,100 to 1000,"O=C(c1cc(Cl)c(O)c(Cl)c1)N1CCOc2ccc(CO)cc21 [Example 56, (3,5-dichloro-4-hydroxyphenyl)-(6-hydroxymethyl-2,3-dihydrobenzo[1,4]oxazin-4-yl)-methanone]"
4,1000 to 3000,"O=S(=O)(c1cc(Cl)c(O)c(Cl)c1)N1CCOc2ccccc21 [Example 22, 2,6-dichloro-4-(2,3-dihydrobenzo[1,4]oxazine-4-sulfonyl)phenol]"
5,< 100,"O=C(c1ccc(O)c(C(F)(F)F)c1)N1CCOc2ccccc21 [Example 39, (2,3-dihydrobenzo[1,4]oxazin-4-yl)-(4-hydroxy-3-trifluoromethylphenyl)-methanone]"
6,100 to 1000,"O=C(c1cc(Cl)c(O)c(Cl)c1)N1CCSc2ccccc21 [Example 8, (3,5-dichloro-4-hydroxyphenyl)-(2,3-dihydrobenzo[1,4]thiazin-4-yl)-methanone]"
7,100 to 1000,"Cc1cc(C)c2c(c1)N(C(=O)c1cc(Cl)c(O)c(Cl)c1)CCO2 [Example 66, (3,5-dichloro-4-hydroxyphenyl)-(6,8-dimethyl-2,3-dihydrobenzo[1,4]oxazin-4-yl)-methanone]"
8,1000 to 3000,"O=C(c1cnc(O)c(Cl)c1)N1CCOc2ccccc21 [Example 29, (5-chloro-6-hydroxypyridin-3-yl)-(2,3-dihydrobenzo[1,4]oxazin-4-yl)-methanone]"
9,100 to 1000,"O=C(c1cc(Cl)c(O)c(Cl)c1)N1CCCc2ccccc21 [Example 26, (3,5-dichloro-4-hydroxyphenyl)-(3,4-dihydro-2H-quinolin-1-yl)-methanone]"
10,100 to 1000,"O=C(c1cc(Cl)c(O)c(Cl)c1)N1CCCCc2ccccc21 [Example 27, (3,5-dichloro-4-hydroxyphenyl)-(2,3,4,5-tetrahydrobenzo[b]azepin-1-yl)-methanone]"
11,100 to 1000,"Cc1ccc2c(c1)OCCN2C(=O)c1cc(Cl)c(O)c(Cl)c1 [Example 13, (3,5-dichloro-4-hydroxyphenyl)-(7-methyl-2,3-dihydrobenzo[1,4]oxazin-4-yl)-methanone]"
12,100 to 1000,"CCN(CC)S(=O)(=O)c1ccc2c(c1)N(C(=O)c1cc(Cl)c(O)c(Cl)c1)CCO2 [Example 21, 4-(3,5-dichloro-4-hydroxybenzoyl)-3,4-dihydro-2H-benzo[1,4]oxazine-6-sulfonic acid diethylamide]"
13,< 100,"O=C(c1cc(Cl)c(O)c([N+](=O)[O-])c1)N1CCOc2ccccc21 [Example 31, (3-chloro-4-hydroxy-5-nitrophenyl)-(2,3-dihydrobenzo[1,4]oxazin-4-yl)-methanone]"
14,< 100,"Cc1ccc2c(c1)N(C(=O)c1cc(Cl)c(O)c(Cl)c1)CCO2 [Example 12, (3,5-dichloro-4-hydroxyphenyl)-(6-methyl-2,3-dihydrobenzo[1,4]oxazin-4-yl)-methanone]"
15,100 to 1000,"O=C(c1cc(Cl)c(O)c(Cl)c1)N1CCOc2cc(Cl)ccc21 [Example 52, (7-chloro-2,3-dihydrobenzo[1,4]oxazin-4-yl)-(3,5-dichloro-4-hydroxyphenyl)-methanone]"
16,100 to 1000,"COc1cc(C(=O)N2CCOc3ccccc32)cc(Cl)c1O [Example 40, (3-chloro-4-hydroxy-5-methoxyphenyl)-(2,3-dihydrobenzo[1,4]oxazin-4-yl)-methanone]"

row,IC50 [nM],Compound
1,< 100,"O=C(c1cc(Cl)c(O)c(Cl)c1)N1CCOc2ccc(Cl)cc21 [Example 51, (6-chloro-2,3-dihydrobenzo[1,4]oxazin-4-yl)-(3,5-dichloro-4-hydroxyphenyl)-methanone]"
2,100 to 1000,"CS(=O)(=O)N1CCN(C(=O)c2cc(Cl)c(O)c(Cl)c2)c2ccccc21 [Example 83, (3,5-dichloro-4-hydroxyphenyl)-(4-methanesulfonyl-3,4-dihydro-2H-quinoxalin-1-yl)-methanone]"
3,100 to 1000,"O=C(c1ccc(Cl)c(O)c1)N1CCOc2ccccc21 [Example 41, (4-chloro-3-hydroxyphenyl)-(2,3-dihydrobenzo[1,4]oxazin-4-yl)-methanone]"
4,< 100,"O=C(c1ccc(O)c(Cl)c1)N1CCOc2ccccc21 [Example 1, (3-chloro-4-hydroxyphenyl)-(2,3-dihydrobenzo[1,4]oxazin-4-yl)-methanone]"
5,< 100,"Cc1cccc2c1OCCN2C(=O)c1cc(Cl)c(O)c(Cl)c1 [Example 15, (3,5-dichloro-4-hydroxyphenyl)-(8-methyl-2,3-dihydrobenzo[1,4]oxazin-4-yl)-methanone]"
6,1000 to 3000,"COc1c(Cl)cc(C(=O)N2CCOc3ccccc32)cc1Cl [Example 86, (3,5-dichloro-4-methoxyphenyl)-(2,3-dihydrobenzo[1,4]oxazin-4-yl)-methanone]"
7,< 100,"O=C(c1cc(Br)c(O)c(Br)c1)N1CCOc2ccc(Cl)cc21 [Example 82, (6-chloro-2,3-dihydrobenzo[1,4]oxazin-4-yl)-(3,5-dibromo-4-hydroxyphenyl)-methanone]"
8,1000 to 3000,"COC(=O)c1ccc2c(c1)OCCN2C(=O)c1cc(Cl)c(O)c(Cl)c1 [Example 59, methyl 4-(3,5-dichloro-4-hydroxybenzoyl)-3,4-dihydro-2H-benzo[1,4]oxazine-7-carboxylate]"
9,1000 to 3000,"CCS(=O)(=O)c1ccc2c(c1)N(C(=O)c1cc(Cl)c(O)c(Cl)c1)CCO2 [Example 84, (3,5-dichloro-4-hydroxyphenyl)-(6-ethanesulfonyl-2,3-dihydrobenzo[1,4]oxazin-4-yl)-methanone]"
10,100 to 1000,"O=C(c1cc(Cl)c(O)c(Cl)c1)N1CCNc2ccccc21 [Example 54, (3,5-dichloro-4-hydroxyphenyl)-(3,4-dihydro-2H-quinoxalin-1-yl)-methanone]"
11,< 100,"O=C(c1cc(Cl)c(O)c(Cl)c1)N1CCOc2ccc(F)cc21 [Example 44, (3,5-dichloro-4-hydroxyphenyl)-(6-fluoro-2,3-dihydrobenzo[1,4]oxazin-4-yl)-methanone]"
12,100 to 1000,"O=C(c1cc(Cl)c(O)c(Cl)c1)N1CCc2ccccc21 [Example 77, (3,5-dichloro-4-hydroxyphenyl)-(2,3-dihydroindol-1-yl)-methanone]"
13,100 to 1000,"O=C(c1cc(F)c(O)c(F)c1)N1CCOc2ccccc21 [Example 6, (3,5-difluoro-4-hydroxyphenyl)-(2,3-dihydrobenzo[1,4]oxazin-4-yl)-methanone]"
14,< 100,"O=C(c1cc(Cl)c(O)c(Cl)c1)N1CCOc2ccc3ccccc3c21 [Example 16, (3,5-dichloro-4-hydroxyphenyl)-(2,3-dihydronaphtho[2,1-b][1,4]oxazin-1-yl)-methanone]"
15,1000 to 3000,"CC(C)(C)c1ccc2c(c1)N(C(=O)c1cc(Cl)c(O)c(Cl)c1)CCO2 [Example 23, (6-tert-butyl-2,3-dihydrobenzo[1,4]oxazin-4-yl)-(3,5-dichloro-4-hydroxyphenyl)-methanone]"
16,< 100,"O=C(c1cc(Cl)c(O)c(Cl)c1)N1CCOc2ccc([N+](=O)[O-])cc21 [Example 67, (3,5-dichloro-4-hydroxyphenyl)-(6-nitro-2,3-dihydrobenzo[1,4]oxazin-4-yl)-methanone]"
